How the values were obtained:
Capan-1 (K-Ras G12V) = test: CellTiter-Glo cell viability assay, 5-day treatment; format: cell-based; conditions: Homo sapiens, CAPAN-1, 120 h, 5-day treatment; read-out: Capan-1 Cell Viability assay data (K-Ras G12V, IC50)
Outline: (§1)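 Luminescence read-out after 5 days of compound exposure, with plates first brought to room temperature for roughly 30 minutes. Values are percent of averaged DMSO wells, fitted by four-parameter logistic regression.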

KRAS G12C = KRAS G12C (Homo sapiens, UniProt P01116+P62937, G12C); test: Disruption of BRAF RBD interaction with Ras (FRET / MOA assay, with Cyclophilin A); format: biochemical; conditions: read-out: KRAS G12C FRET data, IC50
Outline: (§2)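 TR-FRET: nucleotide-loaded K-Ras mutant or WT with Cyclophilin A and BRAF RBD, compound 10-point 3-fold from 30 μM final, 3 h at 25° C, then anti-His Eu (10 nM) and anti-GST APC (50 nM) for 1.5 h. Decreased FRET ratio versus DMSO gives IC50.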

KRAS G12D = KRAS G12D (Homo sapiens, UniProt P01116+P62937, G12D); test: as above; format: biochemical; conditions: read-out: KRAS G12D FRET data, IC50
Outline: as §2

KRAS G12S = KRAS G12S (Homo sapiens, UniProt P01116+P62937, G12S); test: as above; format: biochemical; conditions: read-out: KRAS G12S FRET data, IC50
Outline: as §2

KRAS G12V = KRAS G12V (Homo sapiens, UniProt P01116+P62937, G12V); test: as above; format: biochemical; conditions: KRAS G12V; read-out: KRAS G12V FRET data IC50
Outline: as §2

KRAS G13C = KRAS G13C (Homo sapiens, UniProt P01116+P62937, G13C); test: as above; format: biochemical; conditions: read-out: KRAS G13C FRET data, IC50
Outline: as §2

KRAS G13D = KRAS G13D (Homo sapiens, UniProt P01116+P62937, G13D); test: as above; format: biochemical; conditions: KRAS G13D; read-out: KRAS G13D FRET data IC50
Outline: as §2

KRAS WT = KRAS WT (Homo sapiens, UniProt P01116+P62937); test: as above; format: biochemical; conditions: KRAS WT; read-out: KRAS WT FRET data IC50
Outline: as §2

NRAS G12C = NRAS G12C (Homo sapiens, UniProt P01111+P62937, G12C); test: as above; format: biochemical; conditions: NRAS G12C; read-out: NRAS G12C FRET data IC50
NCI-H358 (K-Ras G12C) = test: CellTiter-Glo cell viability assay, 5-day treatment; format: cell-based; conditions: Homo sapiens, NCI-H358, 120 h, 5-day treatment; read-out: H358 Cell Viability assay data (K-Ras G12C, IC50)
Outline: as §1

Chain of KRAS G13C (P01116 1-169 isoform P01116-2 G13C): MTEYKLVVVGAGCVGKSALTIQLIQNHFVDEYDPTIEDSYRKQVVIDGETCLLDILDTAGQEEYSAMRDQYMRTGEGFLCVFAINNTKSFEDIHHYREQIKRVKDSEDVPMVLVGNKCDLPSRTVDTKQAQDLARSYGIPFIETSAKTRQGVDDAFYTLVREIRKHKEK
Chain of KRAS G13C (P62937 whole entry): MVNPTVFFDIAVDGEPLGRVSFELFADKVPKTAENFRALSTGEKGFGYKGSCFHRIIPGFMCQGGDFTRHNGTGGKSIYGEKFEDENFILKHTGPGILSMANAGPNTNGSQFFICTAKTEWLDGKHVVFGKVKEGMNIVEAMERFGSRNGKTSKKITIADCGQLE
Chain of KRAS WT (P01116 1-169 isoform P01116-2 limits assumed): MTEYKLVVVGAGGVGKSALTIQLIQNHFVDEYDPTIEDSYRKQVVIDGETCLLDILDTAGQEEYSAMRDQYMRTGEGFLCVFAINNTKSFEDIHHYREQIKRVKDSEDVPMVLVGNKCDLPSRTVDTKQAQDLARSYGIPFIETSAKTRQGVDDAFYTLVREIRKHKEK
Chain of KRAS WT (P62937 whole entry): as the sequence (P62937 whole entry) above
Chain of KRAS G12S (P01116 1-169 isoform P01116-2 G12S limits assumed): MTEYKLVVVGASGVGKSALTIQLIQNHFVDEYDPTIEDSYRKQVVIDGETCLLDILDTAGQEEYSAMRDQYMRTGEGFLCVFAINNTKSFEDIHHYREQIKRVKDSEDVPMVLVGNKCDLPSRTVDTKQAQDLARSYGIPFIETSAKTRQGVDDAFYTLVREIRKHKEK
Chain of KRAS G12S (P62937 whole entry): as the sequence (P62937 whole entry) above
Chain of KRAS G12D (P01116 1-169 isoform P01116-2 G12D limits assumed): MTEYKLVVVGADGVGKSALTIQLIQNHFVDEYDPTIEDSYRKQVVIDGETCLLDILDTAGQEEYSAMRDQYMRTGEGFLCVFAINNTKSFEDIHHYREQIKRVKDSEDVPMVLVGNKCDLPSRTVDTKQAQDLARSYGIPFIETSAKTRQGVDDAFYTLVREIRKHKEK
Chain of KRAS G12D (P62937 whole entry): as the sequence (P62937 whole entry) above
Chain of NRAS G12C (P01111 whole entry G12C): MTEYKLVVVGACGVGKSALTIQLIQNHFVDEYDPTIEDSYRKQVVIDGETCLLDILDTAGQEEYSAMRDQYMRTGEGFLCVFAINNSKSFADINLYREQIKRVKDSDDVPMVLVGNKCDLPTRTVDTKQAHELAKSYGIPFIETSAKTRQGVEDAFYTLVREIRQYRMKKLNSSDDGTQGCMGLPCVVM
Chain of NRAS G12C (P62937 whole entry): as the sequence (P62937 whole entry) above
Chain of KRAS G13D (P01116 1-169 isoform P01116-2 G13D limits assumed): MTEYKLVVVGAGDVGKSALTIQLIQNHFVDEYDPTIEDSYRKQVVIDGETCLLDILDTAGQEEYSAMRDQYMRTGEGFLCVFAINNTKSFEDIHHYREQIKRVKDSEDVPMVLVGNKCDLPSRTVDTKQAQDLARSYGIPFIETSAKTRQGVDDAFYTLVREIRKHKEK
Chain of KRAS G13D (P62937 whole entry): as the sequence (P62937 whole entry) above
Chain of KRAS G12V (P01116 1-169 isoform P01116-2 G12V limits assumed): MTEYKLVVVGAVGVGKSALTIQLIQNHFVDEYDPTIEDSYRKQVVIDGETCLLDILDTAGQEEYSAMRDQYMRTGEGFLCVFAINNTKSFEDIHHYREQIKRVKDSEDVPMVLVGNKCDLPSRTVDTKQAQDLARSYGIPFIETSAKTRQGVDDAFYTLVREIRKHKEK
Chain of KRAS G12V (P62937 whole entry): as the sequence (P62937 whole entry) above
Chain of KRAS G12C (P01116 1-169 isoform P01116-2 G12C): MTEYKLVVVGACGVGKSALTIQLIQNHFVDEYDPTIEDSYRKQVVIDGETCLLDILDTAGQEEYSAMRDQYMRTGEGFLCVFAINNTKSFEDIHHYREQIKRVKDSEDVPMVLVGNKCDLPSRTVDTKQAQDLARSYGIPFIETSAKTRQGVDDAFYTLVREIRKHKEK
Chain of KRAS G12C (P62937 whole entry): as the sequence (P62937 whole entry) above

Structure (SMILES) | IC50 (KRAS G12C) | IC50 (KRAS G12D) | IC50 (KRAS G12S) | IC50 (KRAS G12V) | IC50 (KRAS G13C) | IC50 (KRAS G13D) | IC50 (KRAS WT) | IC50 (NRAS G12C) | IC50 (NCI-H358 (K-Ras G12C)) | IC50 (Capan-1 (K-Ras G12V))
CCn1c(-c2cccnc2[C@H](C)OC)c2c3cc(ccc31)-c1cc(O)cc(c1)C[C@H](NC(=O)[C@H](C(C)C)N(C)C(=O)[C@H]1CCN(C(=O)[C@@]3(C)CCCN3)C1)C(=O)N1CCC[C@H](N1)C(=O)OCC(C)(C)C2 [Example A135] | 10 to 100 nM | 10 to 100 nM | 10 to 100 nM | 10 to 100 nM | 10 to 100 nM | 10 to 100 nM | 10 to 100 nM | 10 to 100 nM | – | 1000 to 10000 nM
CCn1c(-c2cccnc2[C@H](C)OC)c2c3cc(ccc31)-c1cc(O)cc(c1)C[C@H](NC(=O)[C@H](C(C)C)N(C)C(=O)C1(CN)CC1)C(=O)N1CCC[C@H](N1)C(=O)OCC(C)(C)C2 [Example A139] | – | – | 10 to 100 nM | 10 to 100 nM | – | – | – | 10 to 100 nM | 100 to 1000 nM | 100 to 1000 nM
C=C[C@@H]1C[C@]1(N)C(=O)N(C)[C@H](C(=O)N[C@H]1Cc2cc(O)cc(c2)-c2ccc3c(c2)c(c(-c2cccnc2[C@H](C)OC)n3CC)CC(C)(C)COC(=O)[C@@H]2CCCN(N2)C1=O)C(C)C [Example A149] | 10 to 100 nM | 100 to 1000 nM | 100 to 1000 nM | 100 to 1000 nM | 10 to 100 nM | 100 to 1000 nM | 10 to 100 nM | 100 to 1000 nM | – | 1000 to 10000 nM
CCn1c(-c2cccnc2[C@H](C)OC)c2c3cc(ccc31)-c1cc(O)cc(c1)C[C@H](NC(=O)[C@@H]1C[C@H]1C)C(=O)N1CCC[C@H](N1)C(=O)OCC(C)(C)C2 [Example A183] | 100 to 1000 nM | > 10000 nM | 1000 to 10000 nM | 1000 to 10000 nM | 100 to 1000 nM | 1000 to 10000 nM | 1000 to 10000 nM | 1000 to 10000 nM | – | 1000 to 10000 nM
C=CC(=O)N1CC[C@H](C(=O)Nc2ccccc2C(=O)N[C@H]2Cc3cc(O)cc(c3)-c3ccc4c(c3)c(c(-c3cnccc3COC)n4CC)CC(C)(C)COC(=O)[C@@H]3CCCN(N3)C2=O)C1 [Example A229] | 10 to 100 nM | 100 to 1000 nM | 100 to 1000 nM | 100 to 1000 nM | 10 to 100 nM | 10 to 100 nM | 100 to 1000 nM | 10 to 100 nM | – | 1000 to 10000 nM
CCn1c(-c2cccnc2[C@H](C)OC)c2c3cc(ccc31)-c1cc(O)cc(c1)C[C@H](NC(=O)[C@H](C(C)C)N(C)C(=O)[C@H]1CCN(C(=O)[C@]3(C)CCCN3C)C1)C(=O)N1CCC[C@H](N1)C(=O)OCC(C)(C)C2 [Example A342] | – | – | – | – | – | – | – | 10 to 100 nM | 10 to 100 nM | 100 to 1000 nM

Continued, in another order:

IC50 (KRAS G12C) | IC50 (KRAS G12D) | IC50 (KRAS G12S) | IC50 (KRAS G12V) | IC50 (KRAS G13C) | IC50 (KRAS G13D) | IC50 (KRAS WT) | IC50 (NRAS G12C) | IC50 (NCI-H358 (K-Ras G12C)) | Structure (SMILES) | IC50 (Capan-1 (K-Ras G12V))
10 to 100 nM | 100 to 1000 nM | 100 to 1000 nM | 100 to 1000 nM | 10 to 100 nM | 10 to 100 nM | 10 to 100 nM | 10 to 100 nM | – | CCn1c(-c2cccnc2[C@H](C)OC)c2c3cc(ccc31)-c1cc(O)cc(c1)C[C@H](NC(=O)[C@H](C(C)C)N(C)C(=O)C1CC13CCNCC3)C(=O)N1CCC[C@H](N1)C(=O)OCC(C)(C)C2 (some centres unmarked) [Example A151] | > 10000 nM
– | – | – | 10 to 100 nM | – | – | – | – | 10 to 100 nM | CCn1c(-c2cccnc2[C@H](C)OC)c2c3cc(ccc31)-c1cc(O)cc(c1)C[C@H](NC(=O)[C@H](C(C)C)N(C)C(=O)[C@H]1C[C@H]1F)C(=O)N1CCC[C@H](N1)C(=O)OCC(C)(C)C2 [Example A162] | 10 to 100 nM

Reference: patent US20230233569A1 (Revolution Medicines, Inc., priority 2020, published 2023)
